Laboratory results: US20230414775A1, “TUBULYSINS AND PROTEIN-TUBULYSIN CONJUGATES” (priority 2021, published 2023)
Where two headings read alike, the source gives them in different places.

Tests used:
HCT15 cells = assay: HCT15 anti-proliferation / cell killing assay (CellTiter-Glo), with or without verapamil; assay type: cell-based, human; details: Homo sapiens
Method: The cell line used in the anti-proliferation assays was HCT15, a human colon, colorectal carcinoma cell line. The HCT15 cells were grown in RPMI medium 1640+10% FBS. To run the assay, the cells (40 μL, 400 cells) were added to each well in a 384-well plate and incubated for twenty-four hours at 37° C. with 5% CO2. One hour before adding compounds, freshly dilute Verapamil to 0.2 mg/ml in ddH2O. Add 1 μL/well diluted Verapamil to Verapamil treatment wells and 1 μL/well ddH2O to the non-Verapamil treatment wells. Return plates to the incubator at 37° C. with 5% CO2. Then the cells were treated with test compounds at various concentrations using HPD300, and then normalize the DMSO to 0.5%. The control wells contained cells and the medium but lack the test compounds. The plates were incubated for 120 hours at 37° C. with 5% CO2. CTG reagent was then added to the wells (25 μL). After the plates were shaken for 10 min and then incubated for 10 min at room temperature, paste the clear bottom with white back seal and record luminescence with Envision. The inhibition % was calculated according to the following equation: inhibition %=[1−(assay-blank)/(control-blank)]×100.

SK-BR-3 cells = assay: SK-BR-3 anti-proliferation assay for payloads (CellTiter-Glo); assay type: cell-based; details: Homo sapiens, free payload, 120-144 h, read-out: SKBR3
Method: The cell line used in the anti-proliferation assays was SK-BR-3, a human breast, adenocarcinoma (pleural effusion) cell line. The cells were grown in McCoy's 5a Medium+10% FBS. To run the assay for payloads, the cells (40 μL, 700 cells) were added to each well in a 384-well plate and incubated for 24 hours at 37° C. with 5% CO2. Then the cells were treated with test compounds at various concentrations using HPD300, and then normalize the DMSO to 0.5%. The control wells contain cells and the medium but lack the test compounds. The plates were incubated for 120 h at 37° C. with 5% CO2. To run the assay for ADCs and some key payloads, the cells (80 μL, 1000 cells) were added to each well in a 96-well plate and incubated for twenty-four hours at 37° C. with 5% CO2. Next, the ADCs or payloads were diluted with Opti-Mem with 0.1% BSA. The cells were treated with test compounds or ADCs (20 μL) at various concentrations in appropriate cell culture medium (total volume, 0.1 mL). The final concentration of DMSO was adjusted to 0.2% and the Opti-Mem with 0.1% BSA was adjusted to 5%. The control wells contained cells and the medium but lacked the test compounds. The plates were incubated for 144 h at 37° C. with 5% CO2. CTG reagent was then added to the wells (25 μL/384-well or 100 μL/96-well). After the plates were shaken for 10 min and then incubated for 10 min at room temperature, paste the clear bottom with white back seal and record luminescence with Envision. The inhibition % was calculated according to the following equation: inhibition %=[1-(assay-blank)/(control-blank)]×100.

[1] = HCT15 cells, no verapamil, 120 h (5 days), read-out: HCT-15
[2] = HCT-15, HCT15 cells pre-treated with verapamil, 120 h, read-out: HCT-15 with verapamil

| Compound | IC50 (HCT15 cells; [1]) [nM] | IC50 (HCT15 cells; [2]) [nM] | IC50 (SK-BR-3 cells) [nM] |
| --- | --- | --- | --- |
| CCCCCCN(C(=O)[C@@H](NC(=O)[C@H]1CCCCN1C)[C@@H](C)CC)[C@H](C[C@@H](NC(C)=O)c1nc(C(=O)N[C@@H](Cc2ccc(NC(=O)CN)cc2)CC(C)(C)C(=O)O)cs1)C(C)C [PA21, (S)-4-(2-((1R,3R)-1-acetamido-3-((2S,3S)—N-hexyl-3-methyl-2-((R)-1-methylpiperidine-2-carboxamido)pentanamido)-4-methylpentyl)thiazole-4-carboxamido)-acid] | 13.8 | 1.73 | 0.703 |
| CCCCCCN(C(=O)[C@@H](NC(=O)[C@@]1(C)CCCN1)[C@@H](C)CC)[C@H](C[C@@H](OC(C)=O)c1nc(C(=O)N[C@@H](Cc2ccc(O)cc2)CC(C)(C)C(=O)O)cs1)C(C)C [Compound P22, reference compound] | 0.265 | 0.078 | 0.087 |
| CCCCCCN(C(=O)[C@@H](NC(=O)[C@H]1CCCCN1C)[C@@H](C)CC)[C@H](C[C@@H](OC(C)=O)c1nc(C(=O)N[C@@H](Cc2ccc(NCC(N)=O)cc2)CC(C)(C)C(=O)O)cs1)C(C)C (racemic) [PA18, Rac-(R)-4-(2-((1S,3S)-1-acetoxy-3-((2R,3R)—N-hexyl-3-methyl-2-((S)-1-methylpiperidine-2-carboxamido)pentanamido)-4-methylpentyl)thiazole-4-carboxamido)-acid] | 0.3 | 0.131 | 0.067 |
| C#CCCCON(C(=O)[C@@H](NC(=O)[C@@]1(C)CCCN1CCO)[C@@H](C)CC)[C@H](C[C@@H](OC(C)=O)c1nc(C(=O)N[C@@H](Cc2ccc(N)cc2)CC(C)(C)C(=O)O)cs1)C(C)C [PA3, (4S)-4-({2-[(1R,3R)-1-(acetyloxy)-3-[(2S,3S)-2-{[(2R)-1-(2-hydroxyethyl)-2-methylpyrrolidin-2-yl]formamido}-3-methyl-N-(pent-4-yn-1-yloxy)pentanamido]-4-methylpentyl]-1,3-thiazol-4-yl}formamido)-5-(4-aminophenyl)-2,2-dimethylpentanoic acid] | 7.7 | 0.741 | 1.46 |
| CCCCCCN(C(=O)[C@@H](NC(=O)[C@H]1CCCCN1CCOCCOCCN)[C@@H](C)CC)[C@H](C[C@@H](OC(C)=O)c1nc(C(=O)N[C@@H](Cc2ccc(N)cc2)CC(C)(C)C(=O)O)cs1)C(C)C [PA12, (4S)-4-({2-[(1R,3R)-1-(acetyloxy)-3-[(2S,3S)-2-{[(2R)-1-{2-[2-(2-aminoethoxy)ethoxy]ethyl}piperidin-2-yl]formamido}-N-hexyl-3-methylpentanamido]-4-methylpentyl]-1,3-thiazol-4-yl}formamido)-5-(4-aminophenyl)-2,2-dimethylpentanoic acid] | 72.1 | 4.73 | > 100 |
| CCCCCCN(C(=O)[C@@H](NC(=O)[C@H]1CCCCN1)[C@@H](C)CC)[C@H](C[C@@H](OCCCO)c1nc(C(=O)N[C@@H](Cc2ccc(NCC(=O)O)cc2)CC(C)(C)C(=O)O)cs1)C(C)C (mixture of isomers) [PA23, Rac-(R)-5-(4-((carboxymethyl)amino)phenyl)-4-(2-((1S,3S)-3-((2R,3R)—N-hexyl-3-methyl-2-((S)-piperidine-2-carboxamido)pentanamido)-1-(3-hydroxypropoxy)-4-methylpentyl)thiazole-4-carboxamido)-2,2-dimethylpentanoic acid] | > 1000 | > 1000 | 9.35 |
| CCCCCCN(C(=O)[C@@H](NC(=O)[C@H]1CCCCN1C)[C@@H](C)CC)[C@H](C[C@@H](OC(C)=O)c1nc(C(=O)N[C@@H](Cc2ccc(N(CCO)C(=O)CN)cc2)CC(C)(C)C(=O)O)cs1)C(C)C (racemic) [PA19, Rac-(R)-4-(2-((1S,3S)-1-acetoxy-3-((2R,3R)—N-hexyl-3-methyl-2-((S)-1-methylpiperidine-2-carboxamido)pentanamido)-4-methylpentyl)thiazole-4-carboxamido)-acid] | 10.8 | 1.8 | 1.84 |
| CCCCCCN(C(=O)[C@@H](NC(=O)[C@H]1CCCCN1C)[C@@H](C)CC)[C@H](C[C@@H](OC(=O)NCC(O)CO)c1nc(C(=O)N[C@@H](Cc2ccc(N)cc2)CC(C)(C)C(=O)O)cs1)C(C)C (stereo partly drawn) [PA26, (4S)-5-(4-aminophenyl)-4-(2-((3S,6R,8R)-3-((S)-sec-butyl)-5-hexyl-13,14-dihydroxy-6-isopropyl-1-((R)-1-methylpiperidin-2-yl)-1,4,10-trioxo-9-oxa-2,5,11-triazatetradecan-8-yl)thiazole-4-carboxamido)-2,2-dimethylpentanoic acid] | 14.6 | 2.23 | 2.82 |
| CCCCCCN(C(=O)[C@@H](NC(=O)[C@H]1CCCCN1C)[C@@H](C)CC)[C@H](C[C@@H](OC(=O)NCC(O)CO)c1nc(C(=O)N[C@@H](Cc2ccc(NCCO)cc2)CC(C)(C)C(=O)O)cs1)C(C)C (stereo partly drawn) [PA27] | > 100 | 33.6 | 63.9 |
| CCCCCCN(C(=O)[C@@H](NC(=O)[C@H]1CCCCN1CCN)[C@@H](C)CC)[C@H](C[C@@H](OCC)c1nc(C(=O)N[C@@H](Cc2ccc(O)cc2)CC(C)(C)C(=O)O)cs1)C(C)C [PA4, (S)-4-(2-((1R,3R)-3-((2S,3S)-2-((R)-1-(2-aminoethyl)piperidine-2-carboxamido)-N-hexyl-3-methylpentanamido)-1-ethoxy-4-methylpentyl)thiazole-4-carboxamido)-5-(4-hydroxyphenyl)-2,2-dimethylpentanoic acid] | 85 | 6.19 | > 1 |
| CCCCCCN(C(=O)[C@@H](NC(=O)[C@H]1CCCCN1CC(=O)O)[C@@H](C)CC)[C@H](C[C@@H](OC(C)=O)c1nc(C(=O)N[C@@H](Cc2ccc(N)cc2)CC(C)(C)C(=O)O)cs1)C(C)C [PA10, (S)-4-(2-((1R,3R)-1-acetoxy-3-((2S,3S)-2-((R)-1-(carboxymethyl)piperidine-2-carboxamido)-N-hexyl-3-methylpentanamido)-4-methylpentyl)thiazole-4-carboxamido)-5-(4-aminophenyl)-2,2-dimethylpentanoic acid] | 31.7 | 2.95 | 5.33 |
| CCCCCCN(C(=O)[C@@H](NC(=O)[C@H]1CCCCN1CCO)[C@@H](C)CC)[C@H](C[C@@H](OC(C)=O)c1nc(C(=O)N[C@@H](Cc2ccc(N)c(F)c2)CC(C)(C)C(=O)O)cs1)C(C)C [PA8, (4S)-4-({2-[(1R,3R)-1-(acetyloxy)-3-[(2S,3S)—N-hexyl-2-{[(2R)-1-(2-hydroxyethyl)piperidin-2-yl]formamido}-3-methylpentanamido]-4-methylpentyl]-1,3-thiazol-4-yl}formamido)-5-(4-amino-3-fluorophenyl)-2,2-dimethylpentanoic acid] | 0.072 | 0.029 | 0.017 |
| CCCCCCN(C(=O)[C@@H](NC(=O)[C@@]1(C)CCCN1CCO)[C@@H](C)CC)[C@H](C[C@@H](OC(C)=O)c1nc(C(=O)N[C@@H](Cc2ccc(N)cc2)CC(C)(C)C(=O)O)cs1)C(C)C [PA6, (4S)-4-({2-[(1R,3R)-1-(acetyloxy)-3-[(2S,3S)—N-hexyl-2-{[(2R)-1-(2-hydroxyethyl)-2-methylpyrrolidin-2-yl]formamido}-3-methylpentanamido]-4-methylpentyl]-1,3-thiazol-4-yl}formamido)-5-(4-aminophenyl)-2,2-dimethylpentanoic acid] | 3.27 | 0.62 | 0.514 |
| CCCCCCN(C(=O)[C@@H](NC(=O)[C@H]1CCCCN1CCOCCN)[C@@H](C)CC)[C@H](C[C@@H](OC(C)=O)c1nc(C(=O)N[C@@H](Cc2ccc(N)cc2)CC(C)(C)C(=O)O)cs1)C(C)C [PA11, (4S)-4-({2-[(1R,3R)-1-(acetyloxy)-3-[(2S,3S)-2-{[(2R)-1-[2-(2-aminoethoxy)ethyl]piperidin-2-yl]formamido}-N-hexyl-3-methylpentanamido]-4-methylpentyl]-1,3-thiazol-4-yl}formamido)-5-(4-aminophenyl)-2,2-dimethylpentanoic acid] | 150 | 5.3 | 15.1 |
